Assay results reported in US7407763B2, “Systems and methods for detecting and regulating metastasis” (The Regents of the University of Michigan, priority 2004, dated 2008).

Tests used:
RKIP mRNA expression = RKIP mRNA expression in RWPE cells by real-time RT-PCR; format: cell-based, human
human RKIP promoter = conditions: RWPE cells, DHT 5 nM, 10 nM, 24 h, compared to basal activity
putative RKIP ARE = conditions: RWPE nuclear extracts, 5 nM DHT, as early as 30 min
Description: The reaction was allowed to proceed for 30 min at room temperature.

C4-2B cells = test: In vitro invasion assay with protein kinase inhibitors; format: cell-based, human; conditions: in vitro invasion through matrix, C4-2B cells (FIG. 4)
Description: The invasiveness of control and sense or antisense-transfected cell clones was evaluated in 24-well transwell chambers (Costar, Cambridge, Mass.) as directed by the manufacturer. Briefly, the upper and lower culture compartments were separated by polycarbonate filters with 8-μm pore size. Some wells were coated with 100 μg/cm^2 collagen matrix (MATRIGEL, Collaborative Biomedical Products, Bedford, Mass.) that was reconstituted by adding 0.5 ml of serum-free T medium for 2 hours. […] Cell penetration through the membrane was quantified by staining the porous membrane with a Diff-Quik stain kit. The numbers of cells that penetrated through the membrane were counted in five microscopic fields (×200) per filter. Invasive ability was then determined as the proportion of cells that invaded through the matrix-coated membrane relative to the number of cells that migrated through the uncoated membrane (baseline migration). […]
Furthermore, because RKIP inhibits tumor invasiveness, it was investigated whether RKIP exerts its metastasis suppressor gene function through regulation of MEK activation. […] Accordingly, the effect of a variety of kinase inhibitors was evaluated, including a MEK inhibitor (PD098059) on in vitro invasion. […]

RKIP mRNA levels = RKIP mRNA levels in LNCaP cells by real time PCR; format: cell-based, human; conditions: IL-6 50 ng/ml, 6 or 24 hours (FIG. 7)
Description: LNCaP cells were plated in culture dishes and treated with IL-6 (50 ng/ml) or vehicle for 6 or 24 hours. Total RNA was collected and subjected to real time PCR for RKIP mRNA levels. RKIP mRNA levels were normalized to β-galactosidase mRNA levels.

Molecule: C[C@@H]1C[C@@H]([C@H](O)CC2CC(=O)NC(=O)C2)C(=O)[C@@H](C)C1 [CHX, cycloheximide]
- expression of RKIP, treatment alone (RKIP mRNA expression; RWPE cells, 24 h, CHX alone (FIG. 12C)): did not change the expression of RKIP

Molecule: CC(O)(CS(=O)(=O)c1ccc(F)cc1)C(=O)Nc1ccc(C#N)c(C(F)(F)F)c1 (stereo not drawn) [Casodex]
- effect on DHT induction of RKIP mRNA expression (RKIP mRNA expression; RWPE cells, 24 h, casodex in the presence of DHT (FIG. 12B)): substantially reduced

Molecule: C[C@]12CCC(=O)C[C@@H]1CC[C@@H]1[C@@H]2CC[C@]2(C)[C@@H](O)CC[C@@H]12 [DHT, dihydrotestosterone]
- increase in luciferase activity of RKIP promoter plasmid (human RKIP promoter): approximately 3 fold
- RKIP expression in cells treated with CHX (RKIP mRNA expression): increase in RKIP expression
- increase in RKIP mRNA at 1 nM (RKIP mRNA expression): significant (P<0.01) increase
- induction of RKIP expression at 0.1 nM (RKIP mRNA expression): almost no induction
- maximum induction of RKIP mRNA expression (RKIP mRNA expression): 1.5 fold
- induction of RKIP expression at saturating amounts (>=5 nM) (RKIP mRNA expression; RWPE cells, 24 h, >=5 nM DHT): significant (P<0.01) induction
- RKIP mRNA expression versus DHT concentration (RKIP mRNA expression; RWPE cells, 24 h, various concentrations of DHT): dose-dependent increase
- DNA binding activity to RKIP ARE probe (putative RKIP ARE): rapid increase in DNA binding activity

Molecule: COc1cccc(-c2cc(=O)c3ccccc3o2)c1N [PD098059]
- decrease of invasive ability of C4-2B cells (C4-2B cells): 41%

Molecule: IL-6: the cytokine interleukin-6
- RKIP expression in LNCaP prostate cancer cells (RKIP mRNA levels): reduces RKIP expression
